ChEMBL document CHEMBL1146837, “Effects of fluorine substitution of cytosine analogues on the binding affinity to HIV-1 reverse transcriptase” (Bioorg Med Chem Lett, 2004)

Key:
Assay type in all cases: functional
[1] = target: Human immunodeficiency virus type 1 reverse transcriptase (Human immunodeficiency virus 1) (UniProt Q72547); test: Efficiency of incorporation into a DNA primer directed by a DNA template at the active site of HIV-1 reverse transcriptase
[2] = target: Human immunodeficiency virus type 1 reverse transcriptase (Human immunodeficiency virus 1) (UniProt Q72547); test: Rate of incorporation into a DNA primer directed by a DNA template at the active site of HIV-1 reverse transcriptase
[3] = target: Human immunodeficiency virus type 1 reverse transcriptase (Human immunodeficiency virus 1, UniProt Q72547); test: Equilibrium binding constant at the active site of HIV-1 reverse transcriptase

SMILES	Efficiency [1]	Kpol [2]	Kd [3]
Nc1ccn([C@@H]2CS[C@H](COP(=O)(O)OP(=O)(O)OP(=O)(O)O)O2)c(=O)n1 [LAMIVUDINE TRIPHOSPHATE]	0.0013 µM⁻¹ s⁻¹	0.019 s⁻¹	15 µM
Nc1nc(=O)n([C@@H]2C=C[C@H](COP(=O)(O)OP(=O)(O)OP(=O)(O)O)O2)cc1F	0.031 µM⁻¹ s⁻¹	0.95 s⁻¹	31 µM
Nc1nc(=O)n([C@@H]2CS[C@H](COP(=O)(O)OP(=O)(O)OP(=O)(O)O)O2)cc1F [EMTRICITABINE 5'-TRIPHOSPHATE]	0.0033 µM⁻¹ s⁻¹	0.039 s⁻¹	12 µM
Nc1ccn([C@@H]2C=C[C@H](COP(=O)(O)OP(=O)(O)OP(=O)(O)O)O2)c(=O)n1	0.0086 µM⁻¹ s⁻¹	0.16 s⁻¹	18 µM
Nc1nc(=O)n([C@H]2O[C@@H](COP(=O)(O)OP(=O)(O)OP(=O)(O)O)C=C2F)cc1F	0.0023 µM⁻¹ s⁻¹	0.15 s⁻¹	64 µM
